Literature values in patent US20180050107A1, “NEUROSTEROID COMPOSITIONS AND METHODS OF USE THEREOF” (Janssen Pharmaceutica NV, priority 2016, published 2018).
pEC50: −log10 of the molar value. Where two headings read alike, the source gives them in different places. Where a SMILES comes first, the peptide text is derived from it.

Assays:
TrkB receptors = biological target: T1, TrkB receptors (Mus musculus, UniProt P15209); conditions: mouse hippocampus
T1 construct: its downstream PI3K/Akt and MAPK receptors in the mouse hippocampus; host or cells: mouse hippocampus

[1] = ICU patients
[2] = biological target: T2, rat cerebellar GABA delta subunits (Rattus norvegicus, UniProt P18506)
T2 construct: rat cerebellar GABA delta subunits; host or cells: rat cerebellum

[3] = not given; remark: listed apart in the source
[4] = in vivo
[5] = not given; remark: listed apart in the source
[6] = gangliosides added to conventional liposomes
[7] = in vivo; remark: listed apart in the source
[8] = test system: MDA-MB-231 breast cancer cells; conditions: 0.1 μM
MMP-9 = conditions: 0.1 μM
β2-AR = β2-AR (Homo sapiens, UniProt P07550); conditions: 0.1 μM
GABA(A) delta [9] = biological target: T3, GABA(A) delta (Homo sapiens, UniProt O14764); conditions: 10 uMol/L, in vitro
T3 sequence (O14764 25-452): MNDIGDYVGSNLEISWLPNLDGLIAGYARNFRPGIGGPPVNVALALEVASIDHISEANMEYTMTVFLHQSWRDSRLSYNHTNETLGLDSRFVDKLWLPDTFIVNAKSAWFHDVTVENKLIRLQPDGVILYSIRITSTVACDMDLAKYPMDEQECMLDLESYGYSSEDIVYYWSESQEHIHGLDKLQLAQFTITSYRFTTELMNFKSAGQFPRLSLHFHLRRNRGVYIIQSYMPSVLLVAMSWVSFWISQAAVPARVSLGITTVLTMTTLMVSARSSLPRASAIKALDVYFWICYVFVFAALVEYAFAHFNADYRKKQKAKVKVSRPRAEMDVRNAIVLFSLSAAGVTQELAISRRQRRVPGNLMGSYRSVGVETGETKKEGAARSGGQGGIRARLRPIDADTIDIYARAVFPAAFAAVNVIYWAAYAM

neurons = conditions: read-out: EC50 for suppression of apoptosis in neurons
lung cancer patients = conditions: combination with EGFR-TKI chemotherapy
GABA(A) delta [10] = biological target: T3, GABA(A) delta; conditions: 1 μMol/L
[11] = in vivo; remark: listed apart in the source
[12] = oral administration, healthy volunteers
GABA(A) delta [13] = biological target: T3, GABA(A) delta; conditions: 100 uM
[14] = in vivo; remark: listed apart in the source
[15] = in vivo; remark: listed apart in the source
[16] = not given; remark: listed apart in the source
PPAR-gamma receptors = biological target: T4, PPAR-gamma receptors (Homo sapiens, UniProt P37231); conditions: read-out: EC for activation of PPAR-gamma receptors
T4 sequence (P37231 1-505): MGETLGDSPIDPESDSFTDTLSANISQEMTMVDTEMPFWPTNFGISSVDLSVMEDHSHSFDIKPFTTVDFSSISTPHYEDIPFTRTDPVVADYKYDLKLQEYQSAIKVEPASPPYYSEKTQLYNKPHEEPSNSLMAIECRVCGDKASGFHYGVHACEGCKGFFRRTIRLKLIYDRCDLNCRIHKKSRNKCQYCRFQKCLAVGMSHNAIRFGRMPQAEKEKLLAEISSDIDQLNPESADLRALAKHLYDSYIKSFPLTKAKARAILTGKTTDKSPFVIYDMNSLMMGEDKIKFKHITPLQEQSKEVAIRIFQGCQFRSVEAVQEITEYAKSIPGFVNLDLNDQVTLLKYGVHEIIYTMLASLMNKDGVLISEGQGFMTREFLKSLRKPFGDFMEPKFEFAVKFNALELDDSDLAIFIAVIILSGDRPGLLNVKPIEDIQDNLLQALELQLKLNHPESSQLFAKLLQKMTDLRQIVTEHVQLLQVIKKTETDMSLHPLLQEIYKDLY

T2 sequence (P18506 17-449 limits assumed): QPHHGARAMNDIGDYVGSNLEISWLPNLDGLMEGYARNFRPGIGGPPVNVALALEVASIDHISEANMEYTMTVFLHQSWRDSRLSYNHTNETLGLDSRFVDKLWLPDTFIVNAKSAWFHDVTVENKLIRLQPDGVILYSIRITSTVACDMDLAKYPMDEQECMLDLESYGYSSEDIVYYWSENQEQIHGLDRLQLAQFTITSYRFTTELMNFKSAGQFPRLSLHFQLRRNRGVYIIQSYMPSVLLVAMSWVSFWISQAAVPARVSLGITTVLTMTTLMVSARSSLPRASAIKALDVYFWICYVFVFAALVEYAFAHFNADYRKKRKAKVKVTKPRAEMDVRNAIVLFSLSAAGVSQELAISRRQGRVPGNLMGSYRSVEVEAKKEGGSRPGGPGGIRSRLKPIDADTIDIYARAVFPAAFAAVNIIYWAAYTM
T2 sequence (P30191 20-453 partner): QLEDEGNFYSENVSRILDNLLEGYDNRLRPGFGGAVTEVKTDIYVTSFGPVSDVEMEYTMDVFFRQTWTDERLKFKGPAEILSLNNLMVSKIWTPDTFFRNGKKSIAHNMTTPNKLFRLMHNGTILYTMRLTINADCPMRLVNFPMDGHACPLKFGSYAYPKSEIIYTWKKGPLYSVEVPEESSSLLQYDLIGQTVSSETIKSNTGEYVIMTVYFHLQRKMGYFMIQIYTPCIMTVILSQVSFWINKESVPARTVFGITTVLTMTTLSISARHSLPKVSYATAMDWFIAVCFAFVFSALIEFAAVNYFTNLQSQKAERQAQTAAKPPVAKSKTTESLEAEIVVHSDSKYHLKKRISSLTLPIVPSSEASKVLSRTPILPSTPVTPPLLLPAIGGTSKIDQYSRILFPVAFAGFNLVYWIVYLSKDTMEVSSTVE
T1 sequence (P15209 32-821): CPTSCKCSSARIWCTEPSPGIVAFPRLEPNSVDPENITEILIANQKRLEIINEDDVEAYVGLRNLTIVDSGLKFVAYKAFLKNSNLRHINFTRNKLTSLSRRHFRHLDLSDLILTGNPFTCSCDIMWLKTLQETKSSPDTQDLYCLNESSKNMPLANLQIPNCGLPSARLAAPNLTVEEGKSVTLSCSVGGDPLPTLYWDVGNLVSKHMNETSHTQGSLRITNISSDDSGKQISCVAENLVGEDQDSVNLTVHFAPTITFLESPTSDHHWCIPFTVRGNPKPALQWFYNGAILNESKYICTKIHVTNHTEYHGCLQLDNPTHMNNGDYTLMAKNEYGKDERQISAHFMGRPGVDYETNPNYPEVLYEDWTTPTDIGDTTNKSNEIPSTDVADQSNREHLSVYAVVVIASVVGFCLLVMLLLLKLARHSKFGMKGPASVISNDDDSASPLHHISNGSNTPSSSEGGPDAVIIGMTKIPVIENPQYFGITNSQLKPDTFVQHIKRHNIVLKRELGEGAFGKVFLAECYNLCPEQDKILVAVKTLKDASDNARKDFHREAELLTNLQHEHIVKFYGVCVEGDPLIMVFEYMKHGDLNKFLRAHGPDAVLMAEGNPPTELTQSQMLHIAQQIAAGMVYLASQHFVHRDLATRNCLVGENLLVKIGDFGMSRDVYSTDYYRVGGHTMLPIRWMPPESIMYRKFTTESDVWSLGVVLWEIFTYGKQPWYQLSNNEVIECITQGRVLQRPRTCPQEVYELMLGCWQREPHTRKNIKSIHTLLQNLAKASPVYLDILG
β2-AR, sequence (P07550 whole entry): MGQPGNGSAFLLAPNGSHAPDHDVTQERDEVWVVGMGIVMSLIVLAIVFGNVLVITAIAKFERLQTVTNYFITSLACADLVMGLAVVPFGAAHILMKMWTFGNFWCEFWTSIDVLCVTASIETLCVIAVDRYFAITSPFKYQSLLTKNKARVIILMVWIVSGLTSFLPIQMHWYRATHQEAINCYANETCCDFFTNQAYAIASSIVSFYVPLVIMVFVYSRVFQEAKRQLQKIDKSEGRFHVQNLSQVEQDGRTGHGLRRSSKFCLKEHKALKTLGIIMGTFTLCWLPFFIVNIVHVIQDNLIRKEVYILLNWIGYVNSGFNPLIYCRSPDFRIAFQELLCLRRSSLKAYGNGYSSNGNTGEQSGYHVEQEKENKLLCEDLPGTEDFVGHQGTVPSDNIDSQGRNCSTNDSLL

Q: For `O=c1cc(-c2ccccc2)oc2c(O)c(O)ccc12` [7,8-DHF, 7,8 dihydroxyflavone], which “concentration activating TrkB receptors” value (TrkB receptors) is on record?
A: The value was 250 nM.

Q: What does the source list for `C[C@H](N)C(=O)N[C@@H](CCC(N)=O)C(=O)O` [AG, Alanyl-Glutamine] (H-Ala-Gln-OH)?
A: plasma half-life [1]: 15.6 min; log P: −2.15

Q: Which “concentration range potentiating rat cerebellar GABA delta subunits” value [2] does the source give for `CC(=O)[C@H]1CC[C@H]2[C@@H]3CC[C@H]4C[C@H](O)CC[C@]4(C)[C@H]3CC[C@]12C` [Allopregnanolone, 3α-hydroxy-5α-pregnan-20-one] here?
A: The value was “nanomolar range”.

Q: With `NCCC(=O)N[C@@H](Cc1cnc[nH]1)C(=O)O` [Carnosine] as the compound, how does the “half-life in human plasma” value [3] read?
A: The value was < 5 min.

Q: What about the “log P” value of the same compound?
A: The value was −1.19.

Q: For `O=C1N[C@@H](Cc2cnc[nH]2)C(=O)N2CCC[C@@H]12` [Cyclo His-Pro], which “biphasic half-life, first phase” value [4] is on record?
A: Its value is 1 min.

Q: And the “biphasic half-life, second phase” value [4]?
A: The value was 33 min.

Q: And the “log P” value?
A: Its value is −1.48.

Q: Which results are given for `Nc1ccn([C@@H]2O[C@H](CO)[C@@H](O)[C@@H]2O)c(=O)n1` [Cytarabine]?
A: half-life in plasma ([5]; continuous infusion): 126 min; half-life ([5]; intravenously delivered): 7 to 107 min; half-life ([5]; subcutaneously delivered): 18 min

Q: For `O=C[C@H](O)[C@@H](O)[C@H](O)[C@H](O)COP(=O)(O)O` [Example G6P, glucose-6-phosphate], which “flux from the liposome into plasma” value [6] is on record?
A: Its value is “about 5 % per hour”.

Q: What about the “log P” value of the same compound?
A: Its value is −3.24.

Q: Which results are given for `O=C(O)[C@H]1O[C@@H](Oc2c(-c3ccc(O)c(O)c3)oc3cc(O)cc(O)c3c2=O)[C@H](O)[C@@H](O)[C@@H]1O` [Example Q3G, quercetin-3-O-glucuronide]?
A: plasma elimination half-life [7]: 140 min; invasion of MDA-MB-231 breast cancer cells [8]: suppressed invasion; MMP-9 induction (MMP-9): suppressed; binding of [(3)H]-NA to β2-AR (β2-AR): inhibited the binding; log P: 2.10

Q: With `N[C@@H](CCC(=O)NCCS(=O)(=O)O)C(=O)O` [GGT, Gamma-Glutamyltaurine] as the compound, how does the “log P” value read?
A: The value was −3.36.

Q: With `C=CCc1ccc(O)c(-c2ccc(O)c(CC=C)c2)c1` [Honokiol] as the compound, how does the “increase of GABA current” value (GABA(A) delta [9]) read?
A: The value was “about 900%”.

Q: With `O=C1C[C@@H](c2ccccc2)Oc2cc(O)cc(O)c21` [Pinocembrin] as the compound, how does the pEC50 (neurons) read?
A: Its pEC50 is 7.00.

Q: For `CC(C)=CCC[C@](C)(O)[C@H]1CC[C@]2(C)[C@@H]1[C@H](O)C[C@@H]1[C@@]3(C)CC[C@H](O[C@@H]4O[C@H](CO)[C@@H](O)[C@H](O)[C@H]4O[C@@H]4O[C@H](CO)[C@@H](O)[C@H](O)[C@H]4O)C(C)(C)[C@@H]3CC[C@]12C` [Rg3, ginsenoside Rg3], which “increase in the duration of progression free survival” value (lung cancer patients) is on record?
A: The value was 20%.

Q: With `C[C@]12CC[C@@H](O)C[C@H]1CC[C@@H]1[C@@H]2CC[C@]2(C)[C@@H](C(=O)CO)CC[C@@H]12` [THDOC, tetrahydrodeoxycorticosterone] as the compound, how does the “increase of GABA current” value (GABA(A) delta [10]) read?
A: The value was “at least 700%”.

Q: Which half-life [11] does the source give for `NC(=O)[C@@H]1CCCN1C(=O)[C@H](Cc1cnc[nH]1)NC(=O)[C@@H]1CCC(=O)N1` [TRH] here?
A: The half-life was 7.6 min.

Q: With `NCCS(=O)(=O)O` [Taurine] as the compound, how does the half-life [12] read?
A: The half-life was 60 min.

Q: And the “log P” value?
A: Its value is −3.36.

Q: For `O=C(O)[C@H]1O[C@@H](Oc2cc3oc(-c4ccccc4)cc(=O)c3c(O)c2O)[C@H](O)[C@@H](O)[C@@H]1O` [baicalin], which “log P” value is on record?
A: The value was 1.27.

Q: For `COc1ccc([C@@H]2CC(=O)c3c(O)cc(O)cc3O2)cc1O` [hesperetin], which “log P” value is on record?
A: Its value is 2.90.

Q: Which “log P” value does the source give for `O=c1c(O[C@@H]2O[C@H](CO)[C@H](O)[C@H](O)[C@H]2O)c(-c2ccc(O)c(O)c2)oc2cc(O)cc(O)c12` [hyperoside] here?
A: The value was 1.75.

Q: With `CC1(C)C2CC=C(CO)C1C2` (centres unmarked) [myrtenol] as the compound, how does the “GABA(A) delta agonism” value (GABA(A) delta [13]) read?
A: The value was “GABA(A) delta agonist”.

Q: Which results are given for `CC[C@H](C)[C@@H]1NC(=O)[C@H](Cc2ccc(O)cc2)NC(=O)[C@@H](N)CSSC[C@@H](C(=O)N2CCC[C@H]2C(=O)N[C@@H](CC(C)C)C(=O)NCC(N)=O)NC(=O)[C@H](CC(N)=O)NC(=O)[C@H](CCC(N)=O)NC1=O` [oxytocin]?
A: half-life [14]: ~6.8 min; crossing of the blood brain barrier [15]: failure to cross the blood brain barrier

Q: With `O=C(O)[C@H]1O[C@@H](Oc2cc3oc(-c4ccc(O)cc4)cc(=O)c3c(O)c2O)[C@H](O)[C@@H](O)[C@@H]1O` [scutellarin] as the compound, how does the bioavailability ([16]; oral) read?
A: Its bioavailability is “less than 3%”.

Q: And the “factor of decrease of plasma concentration” value ([16]; over about an hour)?
A: The value was “about 10”.

Q: Which “GABA(A) delta agonism” value (GABA(A) delta [13]) does the source give for `CC1=CC(O)C2CC1C2(C)C` (centres unmarked) [verbenol] here?
A: The value was “GABA(A) delta agonist”.

Q: Which results are given for hesperetin glucuronide?
A: pEC50 (PPAR-gamma receptors): ~4.00; log P: 0.12
